Experimental data taken from US20140057915A1, “KINASE INHIBITORS” (TOPIVERT PHARMA LIMITED, priority 2012, published 2014).
pEC50, pIC50: −log10 of the molar value.

Assays:
[1] = system: ICAM-1 expression, BEAS2B cells; assay: Poly I:C-induced ICAM-1 expression in BEAS2B cells; type: cell-based; details: Homo sapiens, BEAS-2B; read-out: Poly IC induced ICAM1 in BEAS2B, IC50
Procedure: (f) Poly I:C-Induced ICAM-1 Expression in BEAS2B Cells
Poly I:C is used in these studies as a simple, RNA virus mimic. Poly I:C-Oligofectamine mixture (1 μg/mL Poly I:C, ±2% Oligofectamine, 25 μL; Invivogen Ltd., San Diego, Calif., and Invitrogen, Carlsbad, Calif., respectively) is transfected into BEAS2B cells (human bronchial epithelial cells, ATCC). Cells are pre-incubated with final concentrations of test compounds for 2 hr and the level of ICAM1 expression on the cell surface is determined by cell-based ELISA. At a time point 18 hr after poly I:C transfection, cells are fixed with 4% formaldehyde in PBS (100 μL) and then endogenous peroxidase is quenched by the addition of washing buffer (100 μL, 0.05% Tween in PBS: PBS-Tween) containing 0.1% sodium azide and 1% hydrogen peroxide. Cells are washed with wash-buffer (3×200 μL). and after blocking the wells with 5% milk in PBS-Tween (100 μL) for 1 hr, the cells are incubated with anti-human ICAM-1 antibody (50 μL; Cell Signalling Technology, Danvers, Mass.) in 1% BSA PBS overnight at 4° C.
The cells are washed with PBS-Tween (3×200 μL) and incubated with the secondary antibody (100 μL; HRP-conjugated anti-rabbit IgG, Dako Ltd., Glostrup, Denmark). […] The ICAM-1 signal is detected by reading the absorbance at 450 nm against a reference wavelength of 655 nm using a spectrophotometer. The cells are then washed with PBS-Tween (3×200 μL) and total cell numbers in each well are determined by reading absorbance at 595 nm after Crystal Violet staining (50 μL of a 2% solution in PBS) and elution by 1% SDS solution (100 μL) in distilled water. The measured OD 450-655 readings are corrected for cell number by dividing with the OD595 reading in each well. The inhibition of ICAM-1 expression is calculated at each concentration of test compound by comparison with vehicle control.

[2] = molecular target: cSrc (Homo sapiens, UniProt P12931); assay: c-Src enzyme inhibition (FRET); type: biochemical; details: Table 4a1
Procedure: (§1) The enzyme inhibitory activities of compounds disclosed herein are determined by FRET using synthetic peptides labelled with both donor and acceptor fluorophores (Z-LYTE, Invitrogen Ltd., Paisley, UK).
(§2) The relevant enzyme (3000 ng/mL or 2000 ng/mL respectively, 2.5 μL) is incubated with the test compound (either 4 μg/mL, 0.4 μg/mL, 0.04 μg/mL, or 0.004 μg/mL, 2.5 μL each) for 2 hr at RT. The FRET peptides (8 μM, 2.5 μL), and appropriate ATP solutions (2.5 μL, 800 μM for c-Src, and 60 μM ATP for Syk) are then added to the enzymes/compound mixtures and incubated for 1 hr. Development reagent (protease, 5 μL) is added for 1 hr prior to detection in a fluorescence microplate reader (Varioskan® Flash, ThermoFisher Scientific).
(§3) In all cases, the site-specific protease cleaves non-phosphorylated peptide only and eliminates the FRET signal. Phosphorylation levels of each reaction are calculated using the ratio of coumarin emission (donor) over fluorescein emission (acceptor), for which high ratios indicate high phosphorylation and low ratios indicate low phosphorylation levels.

[3] = molecular target: Syk (Homo sapiens, UniProt P43405); assay: Syk enzyme inhibition (FRET); type: biochemical; details: Table 4a1
Procedure: as §1, §2, §3

[4] = system: TNFα release, d-U937 cells; assay: LPS-induced TNFα release in d-U937 cells; type: cell-based; details: Homo sapiens, dU937; relative to 10 μg/mL BIRB796; Table 4c1; read-out: LPS Induced Release of Cytokine in d-U937 Cells, TNFα REC50
Procedure: (§4) (a) LPS-Induced TNFα/IL-8 Release in d-U937Cells
U937 cells, a human monocytic cell line, are differentiated into macrophage-type cells by incubation with PMA (100 ng/mL) for 48 to 72 hr. Cells are pre-incubated with final concentrations of test compound for 2 hr and are then stimulated with LPS (0.1 μg/mL; from E. Coli: 0111:B4, Sigma) for 4 hr. The supernatant is collected for determination of TNFα and IL-8 concentrations by sandwich ELISA (Duo-set, R&D systems). […] The relative 50% effective concentration (REC50) is determined from the resultant concentration-response curve. The inhibition of IL-8 production is calculated at each concentration of test compound by comparison with vehicle control.

[5] = system: IL-8 release, d-U937 cells; assay: LPS-induced IL-8 release in d-U937 cells; type: cell-based; details: Homo sapiens, dU937; Table 4c1; read-out: LPS Induced Release of Cytokine in d-U937 Cells, IL-8 IC50
Procedure: as §4
U937 cells, a human monocytic cell line, are differentiated into macrophage-type cells by incubation with PMA (100 ng/mL) for 48 to 72 hr. Cells are pre-incubated with final concentrations of test compound for 2 hr and are then stimulated with LPS (0.1 μg/mL; from E. Coli: 0111:B4, Sigma) for 4 hr. […] The relative 50% effective concentration (REC50) is determined from the resultant concentration-response curve.

[6] = system: d-U937 cells; assay: Cell viability: MTT assay; type: cell-based, human; details: 1 μg/mL
Procedure: (l) The Effect of Test Compounds on Cell Viability: MTT Assay
Differentiated U937 cells are pre-incubated with each test compound (final concentration 1 μg/mL or 10 μg/mL in 200 μL media indicated below) under two protocols: the first for 4 hr in 5% FCS RPMI1640 media and the second in 10% FCS RPMI1640 media for 24 h. The supernatant is replaced with new media (200 μL) and MTT stock solution (10 μL, 5 mg/mL) is added to each well. After incubation for 1 hr the media are removed, DMSO (200 μL) is added to each well and the plates are shaken lightly for 1 hr prior to reading the absorbance at 550 nm. The percentage loss of cell viability is calculated for each well relative to vehicle (0.5% DMSO) treatment. Consequently an apparent increase in cell viability for drug treatment relative to vehicle is tabulated as a negative percentage.

[7] = molecular target: GSK3α (Homo sapiens, UniProt P49840); assay: GSK 3α enzyme inhibition (FRET), Method 1; type: biochemical; details: Table 4a1
Procedure: as §1
The following two assay variants are used for determination of GSK 3a inhibition.
The inhibitory activities of compounds of the invention against the GSK 3a enzyme isoform (Invitrogen), are evaluated by determining the level of activation/phosphorylation of the target peptide. The GSK3-α protein (500 ng/mL, 2.5 μL) is mixed with the test compound (2.5 μL at either 4 μg/mL, 0.4 μg/mL, 0.04 μg/mL, or 0.004 μg/mL) for 2 hr at RT. The FRET peptide (8 μM, 2.5 μL), which is a phosphorylation target for GSK3α, and ATP (40 μM, 2.5 μL) are then added to the enzyme/compound mixture and the resulting mixture incubated for 1 hr. Development reagent (protease, 5 μL) is added for 1 hr prior to detection in a fluorescence microplate reader (Varioskan® Flash, ThermoFisher Scientific).
as §3

GSK3α, sequence (P49840 whole entry): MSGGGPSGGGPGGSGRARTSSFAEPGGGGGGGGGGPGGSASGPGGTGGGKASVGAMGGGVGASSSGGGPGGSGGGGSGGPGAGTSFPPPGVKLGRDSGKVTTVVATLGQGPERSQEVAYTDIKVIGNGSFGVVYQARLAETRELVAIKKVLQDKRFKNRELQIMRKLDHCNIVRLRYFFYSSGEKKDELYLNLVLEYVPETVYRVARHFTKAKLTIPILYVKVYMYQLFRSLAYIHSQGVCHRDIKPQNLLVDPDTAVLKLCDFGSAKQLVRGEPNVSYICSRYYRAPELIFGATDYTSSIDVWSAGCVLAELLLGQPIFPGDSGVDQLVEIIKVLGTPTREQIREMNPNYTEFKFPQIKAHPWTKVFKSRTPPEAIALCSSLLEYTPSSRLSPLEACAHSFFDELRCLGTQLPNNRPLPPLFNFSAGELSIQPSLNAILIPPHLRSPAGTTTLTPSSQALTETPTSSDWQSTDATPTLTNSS
cSrc, sequence (P12931 whole entry): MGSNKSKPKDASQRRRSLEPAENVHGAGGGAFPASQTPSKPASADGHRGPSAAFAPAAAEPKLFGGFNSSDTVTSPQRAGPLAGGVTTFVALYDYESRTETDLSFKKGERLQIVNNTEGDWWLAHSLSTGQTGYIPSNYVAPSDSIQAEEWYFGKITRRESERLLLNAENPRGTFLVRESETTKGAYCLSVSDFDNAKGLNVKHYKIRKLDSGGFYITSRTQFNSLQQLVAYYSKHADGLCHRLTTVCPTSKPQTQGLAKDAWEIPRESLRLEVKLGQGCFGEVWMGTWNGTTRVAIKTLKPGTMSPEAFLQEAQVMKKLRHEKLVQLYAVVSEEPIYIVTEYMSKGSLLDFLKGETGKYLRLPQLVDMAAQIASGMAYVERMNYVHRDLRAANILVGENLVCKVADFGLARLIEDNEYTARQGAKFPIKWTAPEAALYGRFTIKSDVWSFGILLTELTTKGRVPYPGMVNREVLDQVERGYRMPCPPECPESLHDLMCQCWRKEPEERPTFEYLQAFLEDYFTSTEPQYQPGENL

SMILES | pIC50 [2] | pIC50 [3] | pEC50 [4] | pIC50 [5] | pIC50 [7] | pIC50 [1] | Cell viability at time point in d-U937 cells, 4 h [6] | Cell viability at time point in d-U937 cells, 24 h [6]
Cc1ccc(-n2nc(C(C)(C)C)cc2NC(=O)Nc2ccc(Oc3ccnc(Nc4cccc(C(=O)NCCN(C)C)c4)n3)c3ccccc23)cc1 [Example 18, 3-((4-((4-(3-(3-(tert-butyl)-1-(p-tolyl)-1H-pyrazol-5-yl)ureido)naphthalen-1-yl)oxy)pyrimidin-2-yl)amino)-N-(2-(dimethylamino)ethyl)benzamide] | 8.15 | < 5.84 | 8.82 | 8.74 | 6.53 | 8.64 | −ve (−ve and +ve indicate that the value is below and above respectively, the no significant effect threshold, defined as 30% inhibition at 1 μg/mL at the time point indicated) | −ve (−ve and +ve indicate that the value is below and above respectively, the no significant effect threshold, defined as 30% inhibition at 1 μg/mL at the time point indicated)
COc1ccc(C(=O)NCCO)cc1Nc1nccc(Oc2ccc(NC(=O)Nc3cc(C(C)(C)C)nn3-c3ccc(C)cc3)c3ccccc23)n1 [Example 33, 3-((4-((4-(3-(3-(tert-butyl)-1-(p-tolyl)-1H-pyrazol-5-yl)ureido)naphthalen-1-yl)oxy)pyrimidin-2-yl)amino)-N-(2-hydroxyethyl)-4-methoxybenzamide] | 8.52 | 7.01 | 8.82 | 8.38 | < 4.84 | 6.84 | −ve (−ve and +ve indicate that the value is below and above respectively, the no significant effect threshold, defined as 30% inhibition at 1 μg/mL at the time point indicated) | −ve (−ve and +ve indicate that the value is below and above respectively, the no significant effect threshold, defined as 30% inhibition at 1 μg/mL at the time point indicated)
COc1ccc(Nc2nccc(Oc3ccc(NC(=O)Nc4cc(C(C)C)nn4-c4ccc(C)cc4)c4ccccc34)n2)cc1C(=O)NCCN1CCOCC1 [Example 70, 5-((4-((4-(3-(3-isopropyl-1-(p-tolyl)-1H-pyrazol-5-yl)ureido)naphthalen-1-yl)oxy)pyrimidin-2-yl)amino)-2-methoxy-N-(2-morpholinoethyl)benzamide] | 8.70 | 7.66 | 9.22 | 8.82 | 6.28 | 8.05 | −ve (−ve and +ve indicate that the value is below and above respectively, the no significant effect threshold, defined as 30% inhibition at 1 μg/mL at the time point indicated) | −ve (−ve and +ve indicate that the value is below and above respectively, the no significant effect threshold, defined as 30% inhibition at 1 μg/mL at the time point indicated)

Further lines, with some results ahead:

pIC50 [2] | pIC50 [3] | pEC50 [4] | pIC50 [5] | pIC50 [7] | SMILES | pIC50 [1] | Cell viability at time point in d-U937 cells, 4 h [6] | Cell viability at time point in d-U937 cells, 24 h [6]
8.52 | 8.40 | 8.48 | 8.68 | 6.55 | COCCOc1cccc(-n2nc(C(C)(C)C)cc2NC(=O)Nc2ccc(Oc3ccnc(Nc4cc(OC)cc(C(=O)NCCN5CCOCC5)c4)n3)c3ccccc23)c1 [Example 55, 3-((4-((4-(3-(3-(tert-butyl)-1-(3-(2-methoxyethoxy)phenyl)-1H-pyrazol-5-yl)ureido)naphthalen-1-yl)oxy)pyrimidin-2-yl)amino)-5-methoxy-N-(2-morpholinoethyl)benzamide] | 8.24 | −ve (−ve and +ve indicate that the value is below and above respectively, the no significant effect threshold, defined as 30% inhibition at 1 μg/mL at the time point indicated) | −ve (−ve and +ve indicate that the value is below and above respectively, the no significant effect threshold, defined as 30% inhibition at 1 μg/mL at the time point indicated)
8.15 | 7.89 | 8.85 | 8.74 | 6.00 | Cc1ccc(-n2nc(C(C)(C)C)cc2NC(=O)Nc2ccc(Oc3ccnc(Nc4cc(Br)cc(C(=O)NCCN5CCOCC5)c4)n3)c3ccccc23)cc1 [Example 62, 3-bromo-5-((4-((4-(3-(3-(tert-butyl)-1-(p-tolyl)-1H-pyrazol-5-yl)ureido)naphthalen-1-yl)oxy)pyrimidin-2-yl)amino)-N-(2-morpholinoethyl)benzamide] | 9.00 | −ve (−ve and +ve indicate that the value is below and above respectively, the no significant effect threshold, defined as 30% inhibition at 1 μg/mL at the time point indicated) | +ve (−ve and +ve indicate that the value is below and above respectively, the no significant effect threshold, defined as 30% inhibition at 1 μg/mL at the time point indicated)
 | < 5.88 | 8.80 | 9.15 | 5.79 | COc1ccc(-n2nc(C(C)C)cc2NC(=O)Nc2ccc(Oc3ccnc(Nc4cc(C)cc(C(=O)NCCN5CCOCC5)c4)n3)c3ccccc23)cc1 [Example 45, 3-((4-((4-(3-(3-isopropyl-1-(4-methoxyphenyl)-1H-pyrazol-5-yl)ureido)naphthalen-1-yl)oxy)pyrimidin-2-yl)amino)-5-methyl-N-(2-morpholinoethyl)benzamide] | 6.87 | −ve (−ve and +ve indicate that the value is below and above respectively, the no significant effect threshold, defined as 30% inhibition at 1 μg/mL at the time point indicated) | −ve (−ve and +ve indicate that the value is below and above respectively, the no significant effect threshold, defined as 30% inhibition at 1 μg/mL at the time point indicated)
